# Measurements from PubChem BioAssay (NCI).
#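 Five compound concentrations were applied to cells in 96-well plates for 48 hours; endpoints were derived by simple linear interpolation of the resulting dose-response curve. GI50 is the concentration that inhibits growth by half. TGI: concentration producing complete growth inhibition.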
# Experiments:
# Test in all cases: NCI-60 cell line screen, 48 h
# 786-0 renal = tested on: 786-0 renal
# A498 renal = tested on: A498 renal
# A549 NSCLC = tested on: A549 NSCLC
# ACHN renal = tested on: ACHN renal
# BT-549 breast = tested on: BT-549 breast
# CAKI-1 renal = tested on: CAKI-1 renal
# CCRF-CEM leukemia = tested on: CCRF-CEM leukemia
# COLO 205 colon = tested on: COLO 205 colon
# DU-145 prostate = tested on: DU-145 prostate
# EKVX NSCLC = tested on: EKVX NSCLC
# HCC-2998 colon = tested on: HCC-2998 colon
# HCT-116 colon = tested on: HCT-116 colon
# HCT-15 colon = tested on: HCT-15 colon
# HL-60(TB) leukemia = tested on: HL-60(TB) leukemia
# HOP-62 NSCLC = tested on: HOP-62 NSCLC
# HOP-92 NSCLC = tested on: HOP-92 NSCLC
# HS 578T breast = tested on: HS 578T breast
# HT29 colon = tested on: HT29 colon
# IGROV1 ovarian = tested on: IGROV1 ovarian
# K-562 leukemia = tested on: K-562 leukemia
# KM12 colon = tested on: KM12 colon
# LOX IMVI melanoma = tested on: LOX IMVI melanoma
# M14 melanoma = tested on: M14 melanoma
# MALME-3M melanoma = tested on: MALME-3M melanoma
# MCF7 breast = tested on: MCF7 breast
# MDA-MB-231 breast = tested on: MDA-MB-231 breast
# MDA-MB-435 = tested on: MDA-MB-435
# MOLT-4 leukemia = tested on: MOLT-4 leukemia
# NCI-H226 lung = tested on: NCI-H226 lung
# NCI-H23 lung = tested on: NCI-H23 lung
# NCI-H460 lung = tested on: NCI-H460 lung
# NCI-H522 lung = tested on: NCI-H522 lung
# NCI/ADR-RES ovarian = tested on: NCI/ADR-RES ovarian
# OVCAR-3 ovarian = tested on: OVCAR-3 ovarian
# OVCAR-4 ovarian = tested on: OVCAR-4 ovarian
# OVCAR-5 ovarian = tested on: OVCAR-5 ovarian
# OVCAR-8 ovarian = tested on: OVCAR-8 ovarian
# PC-3 prostate = tested on: PC-3 prostate
# RPMI-8226 leukemia = tested on: RPMI-8226 leukemia
# RXF 393 renal = tested on: RXF 393 renal
# SF-268 CNS = tested on: SF-268 CNS
# SF-295 CNS = tested on: SF-295 CNS
# SF-539 CNS = tested on: SF-539 CNS
# SK-MEL-2 melanoma = tested on: SK-MEL-2 melanoma
# SK-MEL-28 melanoma = tested on: SK-MEL-28 melanoma
# SK-MEL-5 melanoma = tested on: SK-MEL-5 melanoma
# SK-OV-3 ovarian = tested on: SK-OV-3 ovarian
# SN12C renal = tested on: SN12C renal
# SNB-19 CNS = tested on: SNB-19 CNS
# SNB-75 CNS = tested on: SNB-75 CNS
# SR leukemia = tested on: SR leukemia
# SW-620 colon = tested on: SW-620 colon
# T-47D breast = tested on: T-47D breast
# TK-10 renal = tested on: TK-10 renal
# U251 CNS = tested on: U251 CNS
# UACC-257 melanoma = tested on: UACC-257 melanoma
# UACC-62 melanoma = tested on: UACC-62 melanoma
# UO-31 renal = tested on: UO-31 renal
structure (smiles),measurement,setting,value
NS(=O)(=O)c1ccc(N=Nc2c(O)[nH]c3ccc(Cl)cc23)cc1,GI50,786-0 renal,8.42 µM
same,TGI,786-0 renal,> 20.3 µM
same,GI50,A498 renal,> 22 µM
same,TGI,A498 renal,> 25 µM
same,GI50,A549 NSCLC,11.3 µM
same,TGI,A549 NSCLC,> 25 µM
same,GI50,ACHN renal,9.95 µM
same,TGI,ACHN renal,> 25 µM
same,GI50,BT-549 breast,> 16.9 µM
same,TGI,BT-549 breast,> 25 µM
same,GI50,CAKI-1 renal,> 17.9 µM
same,TGI,CAKI-1 renal,> 25 µM
same,GI50,CCRF-CEM leukemia,> 7.22 µM
same,TGI,CCRF-CEM leukemia,> 25 µM
same,GI50,COLO 205 colon,> 25 µM
same,TGI,COLO 205 colon,> 25 µM
same,GI50,DU-145 prostate,15.5 µM
same,TGI,DU-145 prostate,> 25 µM
same,GI50,EKVX NSCLC,> 25 µM
same,TGI,EKVX NSCLC,> 25 µM
same,GI50,HCC-2998 colon,18.3 µM
same,TGI,HCC-2998 colon,> 25 µM
same,GI50,HCT-116 colon,7.04 µM
same,TGI,HCT-116 colon,> 16.9 µM
same,GI50,HCT-15 colon,> 22.1 µM
same,TGI,HCT-15 colon,> 25 µM
same,GI50,HL-60(TB) leukemia,> 25 µM
same,TGI,HL-60(TB) leukemia,> 25 µM
same,GI50,HOP-62 NSCLC,13.4 µM
same,TGI,HOP-62 NSCLC,> 25 µM
same,GI50,HOP-92 NSCLC,> 9.61 µM
same,TGI,HOP-92 NSCLC,> 25 µM
same,GI50,HS 578T breast,11.6 µM
same,TGI,HS 578T breast,> 25 µM
same,GI50,HT29 colon,> 18.9 µM
same,TGI,HT29 colon,> 25 µM
same,GI50,IGROV1 ovarian,> 19.6 µM
same,TGI,IGROV1 ovarian,> 25 µM
same,GI50,K-562 leukemia,> 25 µM
same,TGI,K-562 leukemia,> 25 µM
same,GI50,KM12 colon,7.58 µM
same,TGI,KM12 colon,> 25 µM
same,GI50,LOX IMVI melanoma,9.96 µM
same,TGI,LOX IMVI melanoma,> 25 µM
same,GI50,M14 melanoma,> 25 µM
same,TGI,M14 melanoma,> 25 µM
same,GI50,MALME-3M melanoma,20.7 µM
same,TGI,MALME-3M melanoma,> 25 µM
same,GI50,MCF7 breast,12.2 µM
same,TGI,MCF7 breast,> 25 µM
same,GI50,MDA-MB-231 breast,8.86 µM
same,TGI,MDA-MB-231 breast,> 25 µM
same,GI50,MDA-MB-435,> 25 µM
same,TGI,MDA-MB-435,> 25 µM
same,GI50,MOLT-4 leukemia,> 25 µM
same,TGI,MOLT-4 leukemia,> 25 µM
same,GI50,NCI-H226 lung,13.6 µM
same,TGI,NCI-H226 lung,> 25 µM
same,GI50,NCI-H23 lung,14 µM
same,TGI,NCI-H23 lung,> 25 µM
same,GI50,NCI-H460 lung,8.62 µM
same,TGI,NCI-H460 lung,> 25 µM
same,GI50,NCI-H522 lung,5.38 µM
same,TGI,NCI-H522 lung,> 25 µM
same,GI50,NCI/ADR-RES ovarian,24.5 µM
same,TGI,NCI/ADR-RES ovarian,> 25 µM
same,GI50,OVCAR-3 ovarian,4.87 µM
same,TGI,OVCAR-3 ovarian,14.2 µM
same,GI50,OVCAR-4 ovarian,> 21.9 µM
same,TGI,OVCAR-4 ovarian,> 25 µM
same,GI50,OVCAR-5 ovarian,> 25 µM
same,TGI,OVCAR-5 ovarian,> 25 µM
same,GI50,OVCAR-8 ovarian,12.9 µM
same,TGI,OVCAR-8 ovarian,> 25 µM
same,GI50,PC-3 prostate,> 25 µM
same,TGI,PC-3 prostate,> 25 µM
same,GI50,RPMI-8226 leukemia,> 25 µM
same,TGI,RPMI-8226 leukemia,> 25 µM
same,GI50,RXF 393 renal,12.9 µM
same,TGI,RXF 393 renal,> 25 µM
same,GI50,SF-268 CNS,17.6 µM
same,TGI,SF-268 CNS,> 25 µM
same,GI50,SF-295 CNS,> 25 µM
same,TGI,SF-295 CNS,> 25 µM
same,GI50,SF-539 CNS,5.29 µM
same,TGI,SF-539 CNS,> 21.9 µM
same,GI50,SK-MEL-2 melanoma,> 18.3 µM
same,TGI,SK-MEL-2 melanoma,> 25 µM
same,GI50,SK-MEL-28 melanoma,> 25 µM
same,TGI,SK-MEL-28 melanoma,> 25 µM
same,GI50,SK-MEL-5 melanoma,16.1 µM
same,TGI,SK-MEL-5 melanoma,> 25 µM
same,GI50,SK-OV-3 ovarian,6.73 µM
same,TGI,SK-OV-3 ovarian,14.5 µM
same,GI50,SN12C renal,17.2 µM
same,TGI,SN12C renal,> 25 µM
same,GI50,SNB-19 CNS,> 25 µM
same,TGI,SNB-19 CNS,> 25 µM
same,GI50,SNB-75 CNS,8.66 µM
same,TGI,SNB-75 CNS,24.9 µM
same,GI50,SR leukemia,6.13 µM
same,TGI,SR leukemia,> 25 µM
same,GI50,SW-620 colon,> 22.4 µM
same,TGI,SW-620 colon,> 25 µM
same,GI50,T-47D breast,> 25 µM
same,TGI,T-47D breast,> 25 µM
same,GI50,TK-10 renal,5.78 µM
same,TGI,TK-10 renal,> 23 µM
same,GI50,U251 CNS,6.64 µM
same,TGI,U251 CNS,> 25 µM
same,GI50,UACC-257 melanoma,> 25 µM
same,TGI,UACC-257 melanoma,> 25 µM
same,GI50,UACC-62 melanoma,> 15.2 µM
same,TGI,UACC-62 melanoma,> 25 µM
same,GI50,UO-31 renal,6.46 µM
same,TGI,UO-31 renal,> 20.6 µM
